Test results published in patent US12629374B2, “Antimalarial agents” (Merck Sharp & Dohme LLC, priority 2020, dated 2026).
Like-named read-outs stand apart in the source and are kept apart here.

System: ring stage parasites
Experiment: Parasite growth potency assay, 72 hours, LDH readout
Assay type: cell-based
Conditions: parasite growth measured by LDH assay after 72 hours at 37° C., 0.7% rings, 2% haematocrit, read-out: EC50
How it was run: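 Parasite growth was quantified by LDH assay after a −80 °C freeze-thaw. Before that, compound was incubated for 72 h at 37 °C under humidified gas with ring-stage cultures adjusted to 0.7% parasitemia and 2% haematocrit in serum- and albumax-supplemented RPMI-Hepes.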

SMILES	EC50 (72 h) [nM]	further results
CCC1(CC)CC(=O)N([C@H](CCS(C)(=O)=O)c2cccc(C(=O)N[C@H]3C[C@H](C(F)(F)F)Oc4ccccc43)c2)C(=N)N1 [Example 162, [4,4-diethyl-1-[3-methylsulfonyl-1-[3-[[(2R,4S)-2-(trifluoromethyl)chroman-4-yl]carbamoyl]phenyl]propyl]-6-oxo-hexahydropyrimidin-2-ylidene]ammonium; 2,2,2-trifluoroacetate]	5.2	–
CCC1(CC)CC(=O)N([C@H](CCC#N)c2cccc(C(=O)N[C@H]3CCOc4ccccc43)c2)C(=N)N1 [Example 73A, [1-[1-[3-[[(4S)-chroman-4-yl]carbamoyl]phenyl]-3-cyano-propyl]-4,4-diethyl-6-oxo-hexahydropyrimidin-2-ylidene]ammonium; 2,2,2-trifluoroacetate]	0.7	–
CCC1(CC)CC(=O)N([C@H](c2cncnc2)c2cccc(C(=O)N[C@H]3CC(C)(C)Oc4ccccc43)c2)C(=N)N1 (stereo in doubt) [Example 92B, 3-[(4,4-diethyl-2-imino-6-oxo-hexahydropyrimidin-1-yl)-pyrimidin-5-yl-methyl]-N-(2,2-dimethylchroman-4-yl)benzamide]	0.9	–
CCC1(C)CC(=O)N([C@H](CCOC)c2cccc(C(=O)N[C@@H]3c4ccccc4C[C@H]3O)c2)C(=N)N1 (stereo partly drawn) [Example 195B, [4-ethyl-1-[(1R)-1-[3-[[(1R,2R)-2-hydroxyindan-1-yl]carbamoyl]phenyl]-3-methoxy-propyl]-4-methyl-6-oxo-hexahydropyrimidin-2-ylidene]ammonium; 2,2,2-trifluoroacetate]	–	EC50 (trifluoroacetate): 2.7 nM
CCC1(CC)CC(=O)N([C@H](c2ccccc2)c2cccc(C(=O)N[C@@H]3c4ccccc4C[C@H]3O)c2)C(=N)N1 [Example 16, [4,4-diethyl-1-[[3-[[(1R,2R)-2-hydroxyindan-1-yl]carbamoyl]phenyl]-phenyl-methyl]-6-oxo-hexahydropyrimidin-2-ylidene]ammonium; 2,2,2-trifluoroacetate]	0.3	–
CCC1(CC)CC(=O)N([C@@H](c2ccc(S(C)(=O)=O)cc2)c2cccc(C(=O)N[C@H]3CC(C)(C)Oc4ccccc43)c2)C(=N)N1 [Example 115B, [1-[[3-[[(4S)-2,2-dimethylchroman-4-yl]carbamoyl]phenyl]-(4-methylsulfonylphenyl)methyl]-4,4-diethyl-6-oxo-hexahydropyrimidin-2-ylidene]ammonium; 2,2,2-trifluoroacetate]	4.4	–
CC#CCCC(c1cccc(C(=O)NC2CC(C)(C)Oc3ccccc32)c1)N1C(=N)NC(CC)(CC)CC1=O (centres unmarked) [Example 83C, [1-[1-[3-[(2,2-dimethylchroman-4-yl)carbamoyl]phenyl]hex-4-ynyl]-4,4-diethyl-6-oxo-hexahydropyrimidin-2-ylidene]ammonium; 2,2,2-trifluoroacetate]	–	EC50 (trifluoroacetate): 50.2 nM
CC[C@]1(C)CC(=O)N(C(CCOC(F)F)c2cccc(C(=O)NC3c4ccccc4OC(C)(C)C3(C)O)c2)C(=N)N1 (single isomer, unassigned) [Example 240A]	–	EC50: 91.6 nM
CCC1(CC)CC(=O)N([C@H](CCOC)c2cccc(C(=O)N[C@H]3CCOc4ccccc43)c2)C(=N)N1 [Example 56, [1-[1-[3-[[(4S)-chroman-4-yl]carbamoyl]phenyl]-3-methoxy-propyl]-4,4-diethyl-6-oxo-hexahydropyrimidin-2-ylidene]ammonium; 2,2,2-trifluoroacetate]	0.5	–
CC[C@@]1(C(C)C)CC(=O)N(Cc2cc(F)cc(C(=O)N[C@H]3CCOc4ccccc43)c2)C(=N)N1 [Example 60, [(4S)-1-[[3-[[(4S)-chroman-4-yl]carbamoyl]-5-fluoro-phenyl]methyl]-4-ethyl-4-isopropyl-6-oxo-hexahydropyrimidin-2-ylidene]ammonium; 2,2,2-trifluoroacetate]	5.8	–
CCC12CCCCCCC3COc4ccccc4C3NC(=O)c3cccc(c3)CN(C(=N)N1)C(=O)C2 (single isomer, unassigned) [Example 120D, (26-ethyl-8,29-dioxo-17-oxa-1,9,27-triazapentacyclo[24.2.2.13,7.010,19. 011,16]hentriaconta-3,5,7(31),11(16),12,14-hexaen-28-ylidene)ammonium; 2,2,2-trifluoroacetate]	–	EC50: 27.6 nM
CCC[C@H](c1cccc(C(=O)N[C@H]2c3ccccc3OC(C)(C)[C@@H]2O)c1)N1C(=N)NC(CC)(CC)CC1=O [Example 119B, [4,4-diethyl-1-[(1R)-1-[3-[(3-hydroxy-2,2-dimethyl-chroman-4-yl)carbamoyl]phenyl]butyl]-6-oxo-hexahydropyrimidin-2-ylidene]ammonium; 2,2,2-trifluoroacetate]	34	–
CC[C@]1(C)CC(=O)N([C@H](C)c2cccc(C(=O)NC3c4ccccc4OC(C)(C)C3(C)O)c2)C(=N)N1 (stereo partly drawn) [Example 225, 3-[(1R)-1-[(4R)-4-ethyl-2-imino-4-methyl-6-oxo-hexahydropyrimidin-1-yl]ethyl]-N-(3-hydroxy-2,2,3-trimethyl-chroman-4-yl)benzamide]	0.32	–
CCC1(C)CC(=O)N([C@H](CCOC)c2cccc(C(=O)N[C@@H]3c4ccccc4C[C@@]3(C)O)c2)C(=N)N1 (stereo partly drawn) [Example 196C, 3-[(1R)-1-(4-ethyl-2-imino-4-methyl-6-oxo-hexahydropyrimidin-1-yl)-3-methoxy-propyl]-N-[(1R,2R)-2-hydroxy-2-methyl-indan-1-yl]benzamide]	–	EC50: 7.4 nM
CCC1(CC)CC(=O)N(Cc2cccc(C(=O)N[C@@H]3c4ccccc4OC3(C)CO)c2)C(=N)N1 (stereo in doubt) [Example 187B, [4,4-diethyl-1-[[3-[[2-(hydroxymethyl)-2-methyl-3H-benzofuran-3-yl]carbamoyl]phenyl]methyl]-6-oxo-hexahydropyrimidin-2-ylidene]ammonium; 2,2,2-trifluoroacetate]	–	EC50 (trifluoroacetate): 19.3 nM
CCC1(CC)CC(=O)N([C@H](c2cncc(F)c2)c2cccc(C(=O)N[C@H]3CCOc4ccccc43)c2)C(=N)N1 [Example 106A, [1-[[3-[[(4S)-chroman-4-yl]carbamoyl]phenyl]-(5-fluoropyridin-1-ium-3-yl)methyl]-4,4-diethyl-6-oxo-hexahydropyrimidin-2-ylidene]ammonium; 2,2,2-trifluoroacetate]	0.5	–
CC(C)[C@]1(C)CC(=O)N([C@H](C)c2cccc(C(=O)N[C@@H]3c4ccccc4C[C@H]3O)c2)C(=N)N1 [Example 27, [(4S)-1-[1-[3-[[(1R,2R)-2-hydroxyindan-1-yl]carbamoyl]phenyl]ethyl]-4-isopropyl-4-methyl-6-oxo-hexahydropyrimidin-2-ylidene]ammonium; 2,2,2-trifluoroacetate]	3.2	–
CCC1(CC)CC(=O)N([C@H](CCOC(F)F)c2cccc(C(=O)N[C@@H]3c4ccccc4C[C@@]3(C)O)c2)C(=N)N1 [Example 158A, 3-[1-(4,4-diethyl-2-imino-6-oxo-hexahydropyrimidin-1-yl)-3-(difluoromethoxy)propyl]-N-[(1R,2R)-2-hydroxy-2-methyl-indan-1-yl]benzamide]	2.6	–
COCC[C@H](c1cccc(C(=O)N[C@@H]2c3cc(F)ccc3C[C@H]2O)c1)N1C(=N)NC(C)(C)CC1=O [Example 200, [1-[(1R)-1-[3-[(6-fluoro-2-hydroxy-indan-1-yl)carbamoyl]phenyl]-3-methoxy-propyl]-4,4-dimethyl-6-oxo-hexahydropyrimidin-2-ylidene]ammonium; 2,2,2-trifluoroacetate]	7.1	–
CC#CCCC(c1cccc(C(=O)NC2CC(C)(C)Oc3ccccc32)c1)N1C(=N)NC(CC)(CC)CC1=O (centres unmarked) [Example 83A, [1-[1-[3-[(2,2-dimethylchroman-4-yl)carbamoyl]phenyl]hex-4-ynyl]-4,4-diethyl-6-oxo-hexahydropyrimidin-2-ylidene]ammonium; 2,2,2-trifluoroacetate]	62.9	–
CCC1(CC)CC(=O)N([C@H](C)c2cccc(C(=O)N[C@H]3CCOc4ccccc43)c2)C(=N)N1 [Example 31, [1-[1-[3-[[(4S)-chroman-4-yl]carbamoyl]phenyl]ethyl]-4,4-diethyl-6-oxo-hexahydropyrimidin-2-ylidene]ammonium; 2,2,2-trifluoroacetate]	0.8	–
CCC[C@H](c1cccc(C(=O)N[C@@H]2c3ccccc3C[C@H]2O)c1)N1C(=N)N[C@@](CC2CC2)(c2ccccc2)CC1=O [Example 65, [(4R)-4-(cyclopropylmethyl)-1-[(1R)-1-[3-[[(1R,2R)-2-hydroxyindan-1-yl]carbamoyl]phenyl]butyl]-6-oxo-4-phenyl-hexahydropyrimidin-2-ylidene]ammonium; 2,2,2-trifluoroacetate]	43.9	–
CCC1(CC)CC(=O)N(Cc2cc(F)cc(C(=O)N[C@@H]3c4ccccc4C[C@H]3O)c2)C(=N)N1 [Example 35, [4,4-diethyl-1-[[3-fluoro-5-[[(1R,2R)-2-hydroxyindan-1-yl]carbamoyl]phenyl]methyl]-6-oxo-hexahydropyrimidin-2-ylidene]ammonium; 2,2,2-trifluoroacetate]	2	–
CCC[C@H](c1cccc(C(=O)N[C@@H]2c3ccccc3CC2(C)O)c1)N1C(=N)NC(CC)(CC)CC1=O (stereo partly drawn) [Example 122D, 3-[(1R)-1-(4,4-diethyl-2-imino-6-oxo-hexahydropyrimidin-1-yl)butyl]-N-(2-hydroxy-2-methyl-indan-1-yl)benzamide]	–	EC50: 0.6 nM
CCC[C@H](c1cccc(C(=O)N[C@@H]2c3ccccc3C[C@H]2O)c1)N1C(=N)N[C@](CC)(c2ccccc2)CC1=O [Example 71, [(4S)-4-ethyl-1-[(1R)-1-[3-[[(1R,2R)-2-hydroxyindan-1-yl]carbamoyl]phenyl]butyl]-6-oxo-4-phenyl-hexahydropyrimidin-2-ylidene]ammonium; 2,2,2-trifluoroacetate]	9.3	–
CCC1(CC)CC(=O)N([C@H](C)c2cccc(C(=O)N[C@@H]3c4ccccc4C[C@@]3(C)O)c2)C(=N)N1 [Example 192A, 3-[(1R)-1-(4,4-diethyl-2-imino-6-oxo-hexahydropyrimidin-1-yl)ethyl]-N-[(1R,2R)-2-hydroxy-2-methyl-indan-1-yl]benzamide]	2.1	–
